Reference: patent publication US20250177412A1, “SMALL-MOLECULE INHIBITORS TARGETING THE BOB1/OCT1 INTERFACE” (NANTES UNIVERSITE, priority 2022, published 2025)

What was measured:
NIH3T3 cells = assay: MTT assay; assay type: cell-based; conditions: data not shown
memory B cells [1] = assay: In vitro plasmablast differentiation, two-phase human B cell model, flow cytometry; assay type: cell-based; conditions: for expression of CD20 marker (CD20+ B cells): day 7 (FIG. 3O-P); for frequency of CD27+ cells: day 4
Excerpt: FIGS. 3A-Y are a combination of graphs and FACS plots showing that targeting BOB1-OCT(s) complex by compound 005 dose-dependently impairs B cells proliferation, activation and differentiation into plasmablasts in the human B cell differentiation in vitro model. Enriched memory B cells from the blood of healthy subjects (n=15) were stimulated at day 0 with anti-F(ab′)2, CD40L, CpG, and IL-2 for four days (activation phase). On day 4, cells were washed and stimulated with IL-2, IL-4, and IL-10 for additional three days (differentiation phase). Compound 005 was added daily to the cultures to a final concentration of 0 (DMSO), 5, 10, 15, 20 μM, as indicated. […] FIG. 3C-H show corresponding summarized data for the frequency (FIG. 3C, E and G) and relative mean fluorescence intensity (MFI; FIG. 3D, F and H) of CD27^+ (FIG. 3C-D), CD38^+ (FIG. 3E-F), and CD20^+ (FIG. 3G-H) B cells analyzed at Day 4. […] FIG. 3K-P show corresponding summarized data for the frequency (Fig. K, M and O) and relative mean fluorescence intensity (MFI; Fig. L, N and P) of CD27^+ (FIG. 3K-L), CD38^+ (FIG. 3M-N), and CD20^+ (FIG. 3O-P) B cells analyzed at Day 7. […] FIG. 3R-Y show the effect of compound 005 on the levels of IgG1 (FIG. 3R), IgG2 (FIG. 3S), IgG3 (FIG. 3T), IgG4 (FIG. 3U), IgA (FIG. 3V), IgE (FIG. 3W), IgM (FIG. 3X) and IgD (FIG. 3Y) immunoglobulin isotypes production at Day 7. Error bars are mean±SD. P values were determined with one-way ANOVA with Geisser-Greenhouse's multiple comparisons test.
Blood samples were obtained from healthy volunteers provided by Sanquin Blood Supply Foundation (Amsterdam, the Netherlands) or from Etablissement Français du Sang (Nantes, France) after written consent was obtained. Peripheral blood mononuclear cells (PBMCs) were isolated through Ficoll-Paque gradient centrifugation on Lymphoprep (Nycomed). Total B cells were isolated from freshly purified PBMCs by negative selection (B cell Isolation Kit II; Miltenyi Biotech, 130-091-151) on magnetic columns using autoMACS Pro Separator according to the manufacturer's instructions. Subsequently, memory and naïve B cells were isolated from negatively-selected CD19^+ B cells by positive and negative selection with CD27 MicroBeads (Miltenyi Biotech, 130-051-601) using autoMACS Pro Separator according to the manufacturer's instructions. Ultimately, purity of the MACS-isolated CD19^+ B cells, CD19^+CD27^+IgD^− memory B cells and CD19^+CD27^−IgD^+ […] was assessed by flow cytometry; purity was >90% for B cells, >65% for memory B cells, and >85% for naive B cells. All cell cultures were carried out in RPMI 1640 medium (Thermo Fisher Scientific) supplemented with 10% FCS, L-glutamine, and penicillin/streptomycin. Cells were incubated at 37° C. in a 5% CO2 atmosphere.
Cells were resuspended in PBS and labelled with Cell Proliferation Dye eFluor 450 (CPD) (eBioscience) at a final concentration of 10 μM at 37° C. for 10 min, kept on ice for 5 min, and washed twice with 10 mL of ice-cold RPMI 1640 10% FCS medium.
B cells were stimulated to differentiate into plasmablasts using a two-phase cell culture protocol as previously described. Briefly, B cells were seeded at 4×10^5 cells/mL in 24-well plates and activated during 4 days with 50 ng/mL recombinant human soluble CD40L (R&D Systems), 2.5 μg/mL CpG oligodeoxynucleotide (ODN) 2006 (Amidogen or Cayla Invivogen), 2 μg/mL F(ab′)2 fragment goat anti-human IgA+IgG+IgM (H+L) polyclonal Abs (anti-BCR) (Jackson ImmunoResearch Laboratories), and 50 U/mL human IL-2 (SARL Pharmaxie or Novartis). Day 4-activated B cells were washed and cultured at the same concentration for three additional days in a fresh medium containing 50 U/mL human IL-2, 10 ng/mL human IL-4 (R&D Systems), and 10 ng/mL human IL-10 (R&D Systems) to induce B cell differentiation into plasmablasts. […]

memory B cells [2] = assay: Immunoglobulin isotype production (LEGENDplex 8-plex); assay type: cell-based, human; conditions: day 7
Method: B cells were stimulated to differentiate into plasmablasts using a two-phase cell culture protocol as previously described. Briefly, B cells were seeded at 4×10^5 cells/mL in 24-well plates and activated during 4 days with 50 ng/mL recombinant human soluble CD40L (R&D Systems), 2.5 μg/mL CpG oligodeoxynucleotide (ODN) 2006 (Amidogen or Cayla Invivogen), 2 μg/mL F(ab′)2 fragment goat anti-human IgA+IgG+IgM (H+L) polyclonal Abs (anti-BCR) (Jackson ImmunoResearch Laboratories), and 50 U/mL human IL-2 (SARL Pharmaxie or Novartis). […] At days 0, 4 and 7, B cells were stained with viability marker LIVE/DEAD Fixable Aqua Dead Cell Stain (Thermofisher) to identify dead cells, followed by extracellular staining with anti-human mAbs: anti-CD20 FITC, anti-IgD BUV395, anti-CD27 BUV737, anti-CD38 BV605 (all from BD Biosciences) and analyzed by flow cytometry (FACSCelesta™, BD Biosciences). In some experiments, B cell apoptosis was evaluated by intracellular active caspase-3 staining (Caspase-3-PE, BD Biosciences).
Immunoglobulin isotypes were quantified using the Human Immunoglobulin Isotyping LEGENDplex 8-plex kit (BioLegend) according to the manufacturer's instructions. Data were collected on the BD FACSCanto™ II flow cytometer and analyzed using LEGENDplex Data Analysis Software.

SMILES: Cc1ccc(NC(=O)C2CN(c3nc(NCCCc4ccc(F)cc4)nc(NCCC(=O)O)n3)c3ccccc3O2)cc1Cl (centres unmarked) [compound 005, 3-((4-(2-((3-chloro-4-methylphenyl)carbamoyl)-2,3-dihydro-4H-benzo[b][1,4]oxazin-4-yl)-6-((3-(4-fluorophenyl)propyl)amino)-1,3,5-triazin-2-yl)amino)propanoic acid]
- concentration showing toxicity (NIH3T3 cells): ≥ 80 µM
- frequency of CD38+ B cells (memory B cells [1]; 5 μM, day 4, mean±SD): 30.5±25.6%
- proliferating (CPD low) B cells (memory B cells [1]; 5 μM, day 4, mean±SD): 66.3±4.8%
- frequency of CD38+ B cells (memory B cells [1]; 5 μM, day 7): 68.9±10.2%
- relative proportion of CD27+ cells (memory B cells [1]; 5 μM, day 7): 54.3±15.9%
- frequency of CD38+ B cells (memory B cells [1]; 10 μM, day 4, mean±SD): 23.9±18.3
- proliferating (CPD low) B cells (memory B cells [1]; 10 μM, day 4, mean±SD): 46.7±18.3%
- CD20loCD38hi plasmablasts generation, median percentage decrease (memory B cells [1]; 10 μM, day 7): 30.3%
- frequency of CD38+ B cells (memory B cells [1]; 10 μM, day 7): 55.5±16.1
- relative proportion of CD27+ cells (memory B cells [1]; 10 μM, day 7): 53.6±14.2%
- expression of CD20 marker (CD20+ B cells) (memory B cells [1]; 10 μM): 81.7±12.4%
- frequency of CD27+ cells (memory B cells [1]; 15 μM): 9.5±11.7%
- frequency of CD38+ B cells (memory B cells [1]; 15 μM, day 4, mean±SD): 4.3±3.7%
- proliferating (CPD low) B cells (memory B cells [1]; 15 μM, day 4, mean±SD): 34.9±19.2%
- CD20loCD38hi plasmablasts generation, median percentage decrease (memory B cells [1]; 15 μM, day 7): 70.5%
- frequency of CD38+ B cells (memory B cells [1]; 15 μM, day 7): 26.3±13.9%
- expression of CD20 marker (CD20+ B cells) (memory B cells [1]; 15 μM): 85.4±11.7%
- frequency of CD27+ cells (memory B cells [1]; 20 μM): 6.4±6.4
- frequency of CD38+ B cells (memory B cells [1]; 20 μM, day 4, mean±SD): 2.5±2.2
- proliferating (CPD low) B cells (memory B cells [1]; 20 μM, day 4, mean±SD): 20.4±19.0%
- CD20loCD38hi plasmablasts generation, median percentage decrease (memory B cells [1]; 20 μM, day 7): 85.2%
- frequency of CD38+ B cells (memory B cells [1]; 20 μM, day 7): 13.0±12.9
- relative proportion of CD27+ cells (memory B cells [1]; 20 μM, day 7): 9.4±8.1%
- frequencies of naïve B cells (memory B cells [1]; with the increase in concentration, day 7): significantly increased
- IgG1, IgG2, IgG3 and IgG4 production (memory B cells [2]; 10 μM): significant decrease
- titers of all immunoglobulin subclasses (memory B cells [2]; 15 and 20 μM): strongly suppressed
